In paper PMC5668434, “Modulation of telomere protection by the PI3K/AKT pathway” (Nature Communications, 2017):

Tests used:
[1] = system: ER/Her2-positive breast cancer PDXs; assay: Mean telomere length by Q-FISH in PDXs; assay type: in vivo, mouse; settings: seven PDXs; 12 days
Procedure: (§1) To this end, we generated PDXs from seven independent ER/Her2-positive breast cancer patients in female athymic NMRI nu/nu mice, and treated these with either the PI3Kα specific inhibitor BYL719 (35 mg/k 6IW) or with vehicle during a total of 12 days. Mice were then killed and PDXs extracted and formalin fixed for further analysis. A TRF1 immunofluorescence followed by a telomere quantitative q-FISH was performed in PDXs sections to identify TRF1 specifically located at telomeres by co-localization of TRF1 protein to telomeric DNA, as well as to quantify telomere length. […] Immunohistochemistry staining of phosphorylated AKT (S473) in these same PDXs followed by quantification of tumor positive area was performed to address the efficacy of BYL719 treatment (Fig. 8c, d). […]
(§2) An immune-Fish was performed in formalin-fixed paraffin-embedded PDXs sections to identify telomeric TRF1 and quantify telomere length. TRF1 foci were detected by immunofluorescence as described above. Quantitative FISH was performed as follows: samples were permeabilized for 2 h in PBS-5% Triton, blocked for 1 h with 5% BSA in PBS, and immunofluorescence with TRF1 homemade rat TRF1 antibody diluted 1:500 was performed. […] Maximal projection of Z-stack images generated using advanced fluorescence software (LAS) was analyzed with the Definiens XD software package. […]

[2] = system: pAKT (S473) in ER/Her2-positive breast cancer PDXs; assay: pAKT (S473) immunohistochemistry in breast cancer PDXs; assay type: in vivo, mouse; settings: 12 days
Procedure: To this end, we generated PDXs from seven independent ER/Her2-positive breast cancer patients in female athymic NMRI nu/nu mice, and treated these with either the PI3Kα specific inhibitor BYL719 (35 mg/k 6IW) or with vehicle during a total of 12 days. Mice were then killed and PDXs extracted and formalin fixed for further analysis. A TRF1 immunofluorescence followed by a telomere quantitative q-FISH was performed in PDXs sections to identify TRF1 specifically located at telomeres by co-localization of TRF1 protein to telomeric DNA, as well as to quantify telomere length. Telomeric TRF1 foci at telomeres (green spots) were unequivocally identified by co-localization with telomeric PNA probe (red spots) (Fig. 8a). […] Immunohistochemistry staining of phosphorylated AKT (S473) in these same PDXs followed by quantification of tumor positive area was performed to address the efficacy of BYL719 treatment (Fig. 8c, d). […] These four PDXs were considered as “responders” to the PI3Kαi treatment. […] This unexpected increase in pAKT levels of PDX191 upon BYL719 treatment could be explained by the activation of regulatory feedback loops that trigger compensatory signaling events leading to activation of the AKT pathway. These three PDX (PDX131, PDX39, PDX191) were considered as “non-responders” to the treatment with the PI3Kα inhibitor BYL719. […] It should be pointed out that untreated PDX131 and PDX39 that presented undetectable pAKT levels correspond to those samples with the lowest telomeric TRF1 levels (Fig. 8b, d). […] In addition, the telomere length changes were more moderate as compared to changes observed in TRF1 levels.
Experiments were conducted following the European Union’s animal care directive (86/609/EEC) and were approved by the Ethical Committee of Animal Experimentation of the Vall d’Hebron Research Institute and patient consent. Fresh primary or metastatic human breast tumors were obtained from patients at time of surgery or biopsy. […]

PI3Kα = settings: reported in literature; cited from earlier work
[3] = system: TRF1 foci in CHA-9.3 mouse lung tumor cell line; assay: TRF1 foci immunofluorescence in CHA-9.3 cells; assay type: cell-based; settings: Mus musculus; 10 μM; 24 h; CHA-9.3; relative to DMSO; read-out: Inhibition of TRF1 foci fluorescence
Procedure: TRF1 immunofluorescence of TRF1 was performed in lung tumor-derived cell line (CHA9.3) and in MEFs[39]. A rat monoclonal antibody against mouse TRF1 developed by the Monoclonal antibody unit at CNIO was used to detect endogenous TRF1 (1:500). GFP-TRF1 fluorescence was directly measured in cells fixed in paraformaldehyde. For quantification of TRF1 foci intensity, pictures of fixed cells were automatically acquired from each well by the Opera HCS system (Perkin Elmer). Sixty images of random fields per well, with a 40× magnification lens, were taken under non-saturating conditions. At least 1 × 10^3 cells were analyzed for each well. Briefly, images were segmented using the DAPI staining to generate masks matching cell nuclei from which-TRF1 foci were analyzed.

[4] = system: telomeric TRF1 in ER/Her2-positive breast cancer PDXs; assay: Telomeric TRF1 foci (immuno-FISH) in breast cancer PDXs; assay type: in vivo, mouse; settings: BYL719 35 mg/kg QD 6 days/week, 12 days
Procedure: as §1, §2

PI3Kδ = settings: reported in literature; cited from earlier work
PI3Kγ = settings: reported in literature; cited from earlier work
PI3Kβ = settings: reported in literature; cited from earlier work
[5] = system: ER/Her2-positive breast cancer PDXs; assay: γH2AX and telomere-induced foci (TIFs) in PDXs; assay type: in vivo, mouse; settings: 12 days
Procedure: We also observed a higher number of telomere-induced DNA damage foci (TIFs) in the BYL719-treated “responder” tumors than in the “non-responders” (Fig. 8h, i), in agreement with lower levels of telomere bound TRF1 levels in the “responders” (Fig. 8b, d).
Formalin-fixed paraffin-embedded PDXs sections were permeabilized with 0.5% PBS-Triton for 1 h and blocked first with fetal bovine serum for 2 h and then in 5% BSA for 2 h. Samples were incubated O/N at 4 °C with the primary antibody. Antibodies used were anti-TRF1 (1:200) (TRF-78, ABCAM, ab10579), anti-RAP1 (1:300) (Bethyl Laboratories, A300-306A), and anti-phospho-histone2 H2AX-Ser139 (γH2AX) (1:300) (Millipore, 05-636). Slides were further incubated with 488-Alexa or 555-Alexa labeled secondary antibodies. Nuclei were counterstained in a 4 µg/ml 4′,6-[…]-2-phenylindole (DAPI)/PBS solution before mounting with Vectashield.

mTOR = settings: reported in literature; cited from earlier work
mTOR (FRAP1) = biological target: T1, mTOR (FRAP1) (Homo sapiens, UniProt P42345); assay: mTOR biochemical assay (LanthaScreen); settings: as given in the text
T1 construct: purchased ThermoFisher PV4753
T1 sequence (P42345 1360-2549 limits assumed): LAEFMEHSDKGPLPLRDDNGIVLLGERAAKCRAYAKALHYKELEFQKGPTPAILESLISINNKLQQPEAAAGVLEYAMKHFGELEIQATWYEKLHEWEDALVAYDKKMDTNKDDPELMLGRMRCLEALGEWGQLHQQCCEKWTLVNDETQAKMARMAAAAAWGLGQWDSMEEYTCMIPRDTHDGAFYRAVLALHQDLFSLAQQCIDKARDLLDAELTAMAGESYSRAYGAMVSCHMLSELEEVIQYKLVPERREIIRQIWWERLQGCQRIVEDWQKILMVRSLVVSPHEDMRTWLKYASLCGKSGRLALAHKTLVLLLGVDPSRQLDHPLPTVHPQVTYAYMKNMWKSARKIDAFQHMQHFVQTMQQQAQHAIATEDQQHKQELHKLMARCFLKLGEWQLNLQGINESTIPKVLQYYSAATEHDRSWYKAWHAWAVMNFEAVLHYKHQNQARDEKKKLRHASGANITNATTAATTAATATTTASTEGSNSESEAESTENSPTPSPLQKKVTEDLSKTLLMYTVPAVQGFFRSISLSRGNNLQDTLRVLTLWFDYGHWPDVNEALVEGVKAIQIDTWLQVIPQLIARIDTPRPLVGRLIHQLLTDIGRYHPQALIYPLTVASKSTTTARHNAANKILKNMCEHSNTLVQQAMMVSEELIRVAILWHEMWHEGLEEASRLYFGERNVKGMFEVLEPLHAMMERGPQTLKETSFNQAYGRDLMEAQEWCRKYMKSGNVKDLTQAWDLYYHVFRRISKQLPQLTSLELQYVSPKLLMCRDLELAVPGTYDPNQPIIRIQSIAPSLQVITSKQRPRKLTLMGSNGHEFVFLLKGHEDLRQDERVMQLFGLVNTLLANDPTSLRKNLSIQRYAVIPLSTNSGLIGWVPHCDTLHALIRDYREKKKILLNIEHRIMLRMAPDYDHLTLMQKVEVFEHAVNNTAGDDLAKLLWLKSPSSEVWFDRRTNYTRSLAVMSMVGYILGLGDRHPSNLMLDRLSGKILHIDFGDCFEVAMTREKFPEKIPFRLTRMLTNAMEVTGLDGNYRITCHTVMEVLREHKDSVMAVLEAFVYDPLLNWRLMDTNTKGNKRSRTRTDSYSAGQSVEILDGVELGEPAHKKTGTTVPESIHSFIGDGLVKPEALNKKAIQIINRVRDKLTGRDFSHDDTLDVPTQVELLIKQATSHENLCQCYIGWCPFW

## Cc1nc(NC(=O)N2CCC[C@H]2C(N)=O)sc1-c1ccnc(C(C)(C)C(F)(F)F)c1 [BYL-719]
[1]
  Mean telomere length upon treatment (in words): moderate but significant changes
[2]; PDX39 (negative for pAKT at basal levels)
  pAKT levels upon treatment (in words): remained unchanged
[2]; PDX131 (negative for pAKT at basal levels)
  pAKT levels upon treatment (in words): remained unchanged
[2]; PDX191, BYL719 35 mg/kg QD 6 days/week
  pAKT (S473) positive tumor area, percent change vs vehicle (↑ increase): 46%
PI3Kα
  IC50: […]
[3]
  inhibition at 10 µM: 30%
[4]; PDX98
  Telomeric TRF1 levels vs vehicle (in words): remained unchanged
[4]; PDX191
  Telomeric TRF1 spot intensity, percent change vs vehicle (↑ increase): 80%
PI3Kδ
  IC50: 290 nM
PI3Kγ
  IC50: 250 nM
PI3Kβ
  IC50: 1200 nM
[5]; BYL719-treated PDXs
  Telomere-induced DNA damage foci (TIFs), responders vs non-responders: higher number
[5]; responder PDXs
  Cells presenting DNA damage (γH2AX positive cells): significant increase
mTOR
  IC50: > 9100 nM
mTOR (FRAP1)
  IC50: > 10000 nM
